Columns and labels:
[1] = system: S. Typhimurium SL1344 (S1), S. Typhimurium ATCC14028 (S2) and E. coli MG1655 (E1); experiment: Mixed-species biofilm assay (CFU); assay type: cell-based, Salmonella Typhimurium and E. coli
Source text: In situ, biofilms are typically complex communities consisting of various bacterial strains and species [Elias & Banin (2012) FEMS Microbiol Rev 36, 990-1004; Burmølle et al. (2014) Trends Microbiol 22, 84-91; Giaouris et al. (2015) Front Microbiol 6, Article 841; Mitri & Richard Foster (2013) Communities. Annual Review of Genetics 47, 247-273]. […] Microbial ecology 68, 146-154]. Hereto, a a previously characterized model community was utilized consisting of two Salmonella and one E. coli strain (S. Typhimurium SL1344 (S1), S. Typhimurium ATCC14028 (S2) and E. coli MG1655 (E1)). […] The reduced biofilm productivity of the mixed-species community is mainly due to the inhibition of the S2 strain (FIG. 6B). The lack of […] inhibition in mixed-species conditions is possibly due to agaric acid weakening the competitive interactions experienced by S1 (FIG. 6C). […] Consequently, […] detected the damage imposed by competition via its stress response systems and induces a competitive response. […] Therefore, it was subsequently explored whether agaric acid can interfere with the increased tolerance in mixed-species conditions by weakening the competition and preventing the induction of this competitive response.
ONCs of S1, S2 and E1 were normalized to an OD595 of 3.2 and added to a small (60 mm Ø) glass Petri dishes containing 10 ml of 1/20 TSB. The three strain were inoculated in a 1:1:1 ratio and incubated under static conditions at 25° C. for 48 h. The same total number of cells was inoculated in mono- and mixed-species conditions (˜12*10^7 cells ml^−1). Afterwards, the liquid above the biofilms was poured off and the biofilms were scraped off the bottom of the plate in 1 ml of PBS, passed through a syringe (25 G) and vortexed to break down the biofilm structure and ensure an homogenous suspension during dilution. The number of colony forming units (CFU) of biofilms was determined by plating. To differentiate between the strains, S1 was labelled with constitutive gfpmut3 on a plasmid, while S2 and E1 were labelled with plasmid-encoded constitutive dsRed.T4. […]

[2] = system: S. aureus SH1000; experiment: Antibiofilm assay (Calgary biofilm device); assay type: cell-based, Staphylococcus aureus
Description: (§1) A static peg assay for the prevention of bacterial biofilm formation was used as described previously. A lid carrying 96 polystyrene pegs was fitted into a microtiter plate with a peg hanging into each well. Two-fold serial dilutions of the compounds in 100 μl liquid broth per well were prepared in the microtiter plate. Subsequently, an overnight culture was diluted 1:100 into the respective liquid broth, and 100 μl (˜10^6 cells) was added to each well of the microtiter plate, resulting in a total amount of 200 μl medium per well. After placing the lid on the microtiter plate, samples containing Salmonella, Pseudomonas or E. coli were incubated statically in TSB 1/20 for 48 h at 25° C., whereas S. aureus was incubated in undiluted TSB at 37° C. for 48 h. After incubation, the lid was removed from the microtiter plate and liquid culture was transferred to a new microtiter plate prior to determining the prior to determining the planktonic growth in each well via OD600 measurements using a Synergy MX multimode reader (Biotek, Winooski, VT). The pegs were washed once in 200 μl PBS and the remaining attached bacteria were stained for 30 min with 200 μl 0.1% crystal violet in an isopropanol-methanol-PBS solution (1:1:18). Excess stain was washed off by placing the pegs in a 96-well plate filled with 200 μl distilled water per well. Afterwards, the pegs were air dried for 30 min and the dye bound to the adherent cells dissolved into 200 μl 30% glacial acetic acid. The OD570 of each well was measured using a Synergy MX multimode reader. Data was analysed using the GraphPad Prism 6 software.

[3] = system: Salmonella Typhimurium ATCC 14028; experiment: Antibiofilm assay (static peg assay, Calgary biofilm device, crystal violet staining; planktonic growth via OD600); assay type: cell-based, Salmonella enterica serovar Typhimurium
Description: as §1

[4] = system: Salmonella Typhimurium ATCC 14028; experiment: Staining of flagella; assay type: cell-based, Salmonella enterica serovar Typhimurium; conditions: 100 μM vs DMSO, 24 h
Description: An ONC of Salmonella Typhimurium ATCC 14028 was diluted 1/100 in 5 ml TSB 1/20, with either a final concentration of 100 μM agaric or the corresponding amount of DMSO as a control. The planktonic cultures were incubated for 24 h at 25° C., shaking at 200 rpm. The flagella were stained according to Kearns and Losick (2003) Molecular microbiology 49, 581-590. Briefly, the stain consist of ten parts mordant (2 g tannic acid, 10 ml 5% phenol, 10 ml saturated aqueous AIK(SO4)2) mixed with one part stain (12% crystal violet in ethanol). 3 μl of sample was applied to a microscopic slide and covered with a 22 mm×40 mm coverslip. After placing the slide vertically, 10 μl was applied to the top edge of the coverslip in order to stain the sample due to capillary forces. Samples were visualized with phase contrast using a Zeiss Axio Imager Z1 microscope with an EC Plan Neofluar (×100 magnification/1.3 numerical aperture) objective.

[5] = system: S. Typhimurium SL1344 (S1) in mixed-species biofilm with S2 and E1; experiment: Mixed-species tolerance assay (CFU); assay type: cell-based, Salmonella Typhimurium and E. coli
Description: The monospecies and mixed-species biofilms were grown on petri dishes for 48 h at 25° C. as described above. The medium was then replaced by 5 ml PBS with either 0.25% H2O2 or 1 μM ciprofloxacin and the biofilms were incubated for an additional 1 h at 25° C. Subsequently, the biofilms were scraped off and plated out on solid LB agar plates for CFU determination. To differentiate between the strains, S1 was labelled with constitutive gfpmut3 on a plasmid, while S2 and E1 were labelled with plasmid-encoded constitutive dsRed.T4. Differences in colony shape and size allowed differentiation between S2 and E1 during CFU counting.

[6] = system: Salmonella; experiment: Soft agar swimming assay; assay type: cell-based, Salmonella enterica serovar Typhimurium; conditions: 100 μM, 0.25% agar, 24 h, 25° C.
Description: Based on Kim & Surette (2003) Biol Proced Online 5, 189-196, swimming plates were made by mixing 30 ml TSB 1/20 with 0.25% agar. These plates contained either a final concentration of 100 μM agaric or the corresponding amount of DMSO. After 2 h drying at room temperature, 3 μl of an overnight culture was inoculated by piercing the surface of the agar with the pipette tip. The plates were incubated upright for 24 h at 25° C., afterwards the size of the halo was measured and visually recorded.

Compound: CCCCCCCCCCCCCCCCC(C(=O)O)C(O)(CC(=O)O)C(=O)O (stereo not shown) [Agaric acid, 2-hydroxynonadecane-1,2,3-tricarboxylic acid]
- competition experienced by S1 in presence of S2 and E1 [1]: weakens the competition experienced by S1
- biofilm formation of S2 strain in the mixed-species community ([1]; 100 μM): significantly inhibited
- number of biofilm cells of mixed-species consortium attached to abiotic surface ([1]; S1, S2 and E1 1:1:1, 48 h, 25° C.): significantly reduced the number of biofilm cells
- planktonic growth (OD600) [2]: inhibits
- biofilm inhibition versus bactericidal effect ([2]; comparison of effective concentrations): biofilm inhibition occurred already at a lower concentration than the bactericidal effect
- biofilm formation ([2]; crystal violet staining, undiluted TSB, 37° C., 48 h): inhibits
- inhibition at 800 µM ([3]; Salmonella enterica, at 800 μM, crystal violet staining, read-out: inhibition of biofilm formation): 99.9%
- planktonic growth (OD600) ([3]; after 48 h incubation in the Calgary biofilm device): not inhibited
- concentrations at which biofilm formation is significantly prevented ([3]; crystal violet staining, TSB 1/20, 48 h, 25° C.): higher than 100 μM
- planktonic growth (OD600) at the highest concentration ([3]; highest concentration tested): enhanced
- flagellar appearance [4]: no differences in flagellar appearance
- enhanced tolerance of S1 in mixed-species conditions ([5]; 0.25% H2O2 or 1 μM ciprofloxacin, 1 h): completely abolished the enhanced tolerance of S1
- number of S1 cells surviving antimicrobial treatment in mixed-species communities ([5]; in presence of agaric acid): lowest number of S1 cells surviving antimicrobial treatment
- tolerance of remaining biofilm cells towards ciprofloxacin and H2O2 ([5]; preventive treatment, 0.25% H2O2 or 1 μM ciprofloxacin, 1 h): reduced the tolerance of the remaining biofilm cells
- swimming motility (halo formation) [6]: no halo was formed
- swimming motility (halo formation) ([6]; listed as agaric acid): almost completely inhibited motility

— patent US20240196889A1, “USE OF DI- AND TRI[…] ACIDS IN THE PREVENTION OF BIOFILM FORMATION” (priority 2020, published 2024)
